What was measured:
[1] = tested on: Chinese hamster ovary cells; experiment: Chromosome aberrations in Chinese hamster ovary cells in vitro (photomutagenicity assay); details: 3 hours treatment, absence or presence of ultraviolet light
Protocol: The test item was assayed for the ability to cause chromosomal damage in Chinese hamster ovary cells, following in vitro treatment in the absence and presence of UVA/UVB irradiation.
Solutions of the test item were prepared in Hank's Balanced Salt Solution (HBSS).
Both in the absence and presence of UV light, the cells were treated for 3 hours and the harvest time of 20 hours, corresponding to approximately 1.5 cell cycle, was used.
The experiment included appropriate negative and positive controls. Two cell cultures were prepared at each test point.
Dose levels were selected for the scoring of chromosomal aberrations on the basis of the cytotoxicity of the test item treatments as determined by the reduction of cell counts at the time of harvesting.
One hundred metaphase spreads were scored for chromosomal aberrations from each culture.

guinea pig [2] = experiment: Photoirritation test in guinea pigs; assay type: in vivo
Protocol: The potential of the test item 0.1% cream to cause photoallergic and/or photoirritant reactions following topical application to the skin, in association with exposure to ultraviolet light, was assessed using a guinea pig model.
In the first phase, an assessment of the photoirritant properties of the test item was performed in 6 groups of animals. These were used both to establish suitable concentrations of the test item for use in the sensitisation assay and to provide information on photo-induced irritation. Animals were treated as follows (Table 6):
The photoirritation test was undertaken using 2 (irradiated) groups, each of 5 animals, treated with the control and test items, cream placebo and test item 0.1% cream, respectively (cf. Table 6, groups 1 and 3) and 2 similarly constituted groups (cf. Table 6, groups 2 and 4), treated in the same manner but not irradiated. Aliquots of the undiluted test or control item (100%), 2 concentrations (20% and 50% in purified water) of the test and control items and the vehicle alone (purified water), were spread evenly over defined skin sites prepared on the dorsum of the animals. Animals of the irradiated groups (groups 1 and 3) were exposed to both UVA (10 Joules/cm^2) and UVB (0.1 Joules/cm^2) radiation following dosing. […]

Balb/c 3T3 cells = assay type: cell-based; details: mouse
Protocol: The potential in vitro phototoxicity of the test item was evaluated by the measurements of neutral red uptake for cellular toxicity on cultures of Balb/c 3T3 cells treated with different doses of the test item and exposed to UVA irradiation. Test item solutions were prepared using Earle's Balanced Salt Solution (EBSS).
A preliminary dose-range finding experiment in the presence (+UVA) and in the absence (−UVA) of light was undertaken in order to select appropriate dose levels for the main assays. The test item was assayed at a maximum dose level of 1000 μg/ml (the upper limit indicated in the study protocol) and at a wide range of lower dose levels: 500, 250, 125, 62.5, 31.3, 15.6 and 7.81 μg/ml. […] In this case the chemical is considered to be non-phototoxic. The same dose range was used for the main assay.
A main experiment was performed using the following dose levels: 1000, 500, 250, 125, 62.5, 31.3, 15.6 and 7.81 μg/ml.

guinea pig [3] = experiment: Photosensitisation test in guinea pigs; assay type: in vivo
Protocol: The second phase of the study was an assessment of sensitisation, in which a total of 5 groups were treated as follows (Table 7):
The photosensitisation test was undertaken using 2 groups of 10 animals (cf. Table 7, groups 8 and 9) induced with the control item and the test item and 1 control group of 10 animals (cf. Table 7, group 7) induced with the selected vehicle (purified water). In an attempt to induce sensitisation, animals were intradermally injected with an emulsion of Freund's complete adjuvant. The test and control items, at 100% concentration, were applied topically over the area among the injection sites of FCA a total of 6 times over a 2 week period. Animals were exposed to both UVA (10 Joules/cm^2) and UVB (0.1 Joules/cm^2) radiation following dosing. Control group animals were treated in the same manner but the selected vehicle (purified water) was used in place of the test or control items. Approximately 2 weeks after the final induction exposure, all animals were challenged by topical application of both the vehicle and the test or control item at 20% and 50% concentrations, respectively. These concentrations were selected as they were considered non-irritant to the skin in association with ultraviolet irradiation on the basis of the results obtained at the photoirritation test. Animals of the 2 test groups and the control group were exposed to both UVA (10 Joules/cm^2) and UVB (0.1 Joule/cm^2) radiation following dosing. Additional sites on each animal were topically treated with both the vehicle and test or control items, but treatment was not followed by exposure to ultraviolet irradiation. Approximately 24, 48 and 72 hours after challenge exposure the treated sites were examined for evidence of reaction to treatment.
One group of 5 animals (cf. Table 7, group 11) was induced with this substance at a concentration of 15% in acetone. A control group of 3 animals (cf. Table 7, group 10) was treated in the same manner with the vehicle alone (acetone). A concentration of 10% of the reference item (Musk Ambrette) in acetone was selected for the challenge. […]

**Q.** How did the “cells bearing chromosomal aberrations (including or excluding gaps)” value [1] turn out when COc1c2occc2cc2ccc(=O)oc12 [8-Methoxypsoralen] was run?
**A.** Its value is “Statistically significant increases”.

**Q.** What about the skin reaction (guinea pig [2]; exposed to ultraviolet light, concentrations 0.01% and 0.1%) of the same compound?
**A.** Its skin reaction is “well defined to moderate erythema and a slight oedema”.

**Q.** What about the skin reaction (guinea pig [2]; without exposure to ultraviolet light) of the same compound?
**A.** The skin reaction was “No response was seen”.

**Q.** Which “Photo Irritation Factor (PIF)” value (Balb/c 3T3 cells) does the source give for CN(C)CCCN1c2ccccc2Sc2ccc(Cl)cc21 [Chlorpromazine, reference compound] here?
**A.** Its value is 21.9.

**Q.** For COc1c(C(C)(C)C)cc([N+](=O)[O-])c(C)c1[N+](=O)[O-] [Musk Ambrette], which response at challenge (guinea pig [3]; group 10, induced with the vehicle) is on record?
**A.** Its response at challenge is “No response to the reference item was observed”.

**Q.** And the “animals responding at challenge (very slight to slight erythema)” value (guinea pig [3]; group 11 (induced at 15% in acetone), challenge at 10% followed by UV irradiation)?
**A.** Its value is 4/5.

**Q.** And the response at challenge (guinea pig [3]; group 11, sites treated but not irradiated)?
**A.** The response at challenge was “No response to the reference item was observed”.
